Converted amounts (≈) assume the structure as drawn. Like-named read-outs stand apart in the source and are kept apart here.
How the values were obtained:
[1] = tested on: sensitized guinea pig trachea; experiment: Antigen challenge 'in vitro' assay (egg albumin-induced contraction of sensitized tracheal chains); format: cell-based; conditions: Cavia porcellus; for inhibition at 3 µg/mL: at 3 μg/ml; for inhibition at 10 µg/mL / inhibition at 1 µg/mL: read-out: In Vitro Antigen Challenge % Inhibition
Experimental: Male guinea pigs weighing 300-350 g were sensitized by injecting (i.p.) 0.5 ml of a suspension containing 0.4 mg of egg albumin (Ovalbumin, Grade V, Sigma Chemical Co.) and 4.0 g aluminum hydroxide in 19.6 ml of saline. Two weeks were permitted for sensitization to occur.
Three sensitized guinea pigs were stunned and exsanguinated. The tracheas were removed, freed of adhering tissue and divided longitudinally by cutting through the cartilaginous tissue directly opposite the muscle insertion. Each opened trachea was then transected between every second cartilage. Four of the cut sections were tied together, end to end in a series with No. 0.7 silk thread ensuring that the tracheal muscles were all in the same vertical plane. Thus, each chain consisted of tissue from three different animals.
The chain so formed was then suspended under 1 g of tension (by silk ties at each end) in a 20 ml organ bath containing 10 ml of modified^1 Krebs-Henseleit buffer solution gassed with 95% O2 and 5% CO2 at 37° C. Mepyramine (0.55 μg/ml) and indomethacin (2.67 μg/ml were added to the buffer to avoid the contribution of histamine receptors and cyclooxygenase products to the contraction. To record responses one end of the tracheal chain was attached to a Gould Statham UC-2 force displacement transducer which was connected to a Beckman Type R-dynograph.The preparations were allowed to equilibrate for one hour during which time the tissues were automatically washed (10 ml volume displacement) ever 6 minutes.
After the equilibration period the tissues were primed with methacholine (3 μg/lml; 1.5×10^-5 M), washed and allowed to recover to baseline. The tissues were treated again with a second dose of methacholine, washed, allowed to return to baseline and washed for an additional hour.
Two chains were used as a control. These were incubated in a concentration of egg albumin sufficient to induce an average contraction of 50-80% of the methacholine response.
Each compound to be tested was added to two other baths (at a final concentration in each bath of 10 μg/ml or lower) 15 minutes prior to challenging the fresh chains with egg albumin.
The response of the challenged tissue was expressed as a percentage of the methacholine maximum. The % inhibition for each compound was then calculated. Compounds which at 10 μg/ml (final concentration) inhibited the egg albumin response by 50% or more were retested at a lower concentration.

[2] = tested on: LTB4 formation in rat PMN; experiment: Rat polymorphonuclear leukocyte (P.M.N.) assay, LTB4 formation; format: cell-based; conditions: A-23187, LTB4
Experimental: Rats under ether anesthesia are injected (i.p.) with 8 ml of a suspension of sodium caseinate (6 grams in ca. 50 ml water). After 15-24 hours the rats are sacrificed (CO2) and the cells from the peritoneal cavity are recovered by lavage with 20 ml of buffer (Eages MEM containing 30 mM HEPES adjusted to pH 7.4 with NaOH). The cells are pelleted (350×g, 5 min.), resuspended in buffer with vigorous shaking, filtered through lens paper, recentrifuged and finally suspended in buffer at a concentration of […]. A 500 μl aliquot of PMN suspension and test compound are preincubated for 2 minutes at 37° C., followed by the addition of 10 μM A-23187. The suspension is stirred for an additional 4 minutes then bioassayed for LTB4 content by adding an aliquot to a second 500 μl portion of the PMN at 37° C. The LTB4 produced in the first incubation causes aggregation of the second PMN, which is measured as a change in light transmission. The size of the assay aliquot is chosen to give a submaximal transmission change (usually […]) for the untreated control. The percentage inhibition of LTB4 formation is calculated from the ratio of transmission change in the sample to the transmission change in the compound-free control.

[3] = tested on: Mouse peritoneal macrophages; experiment: Mouse macrophage assay (zymosan-stimulated arachidonic acid metabolites, Leukotriene C4); format: cell-based; conditions: read-out: Macrophage IC50
Experimental: Mouse peritoneal macrophages were treated sequentially with arachidonic acid (labelled with tritium); the compound being evaluated as an inhibitor, and a stimulator (zymosan). Metabolites derived from arachidonic acid (PGE2, 6-Keto PG-F1@ and Leukotriene C4) were separated from the incubation medium by extraction and chromatography, and then quantitated by determining the amount of radioactivity (cpm) associated with each of them. […] (This protocol is identical to that described in the reference except that the radioactivity herein associated with the LTC4 was determined by counting an aliquot of the final aqueous solution directly rather than chromatographing it first).
Reference: Humes, J. L. et al., J. Biol. Chem. 257, 1591-4 (1982).

asthmatic rats = experiment: Asthmatic rat assay (duration of dyspnoea after egg albumin aerosol); format: in vivo; conditions: po, 1.5 mg/kg p.o.
Excerpt: Rats were obtained from an inbred line of asthmatic rats. Both female and male rats from 200 to 300 g were used.
Egg albumin (EA), grade V, crystallized and lyophilized, was obtained from Sigma Chemical Co., St. Louis. Bordetella pertussis vaccine, containing 30×10^9 killed bacteria per ml was obtained from the Institut Armand-Frappier, Laval des Rapides, Quebec. Aluminum hydroxide was obtained from the Regeis Chemical Company, Chicago.
The challenge and subsequent respiratory recordings were carried out in a clear plastic box with internal dimensions 10×6×4 inches. The top of the box was removable; in use, it was held firmly in place by four clamps and an airtight seal was maintained by a soft rubber gasket. […] A Fleisch No. 0000 pneumotachograph was inserted into one end of the box and coupled to a Grass volumetric pressure transducer (PT5-A) which was then connected to a Beckman Type R Dynograph through appropriate couplers. While aerosilizing the antigen, the outlets were open and the pneumotachograph was isolated from the chamber. The outlets were closed and the pneumotachograph and the chamber were connected during the recording or the respiratory patterns. For challenge, 2 ml of a 3% solution of antigen in saline was placed into each nebulizer and the aerosol was generated with air from a small Potter diaphragm pump operating at 10 psi and a flow of 8 liters/minutes.
Rats were sensitized by injection (s.c.) 1 ml of a suspension containing 1 mg EA and 200 mg aluminum hydroxide in saline. Simultaneously, they received an injection (i.p.) of 0.5 ml of B. pertussis vaccine. They were used between days 14 and 18 postsensitization. In order to eliminate the serotonin component of the response, rats were pretreated intravenously 5 minutes prior to aerosol challenge with […] methylserzide. Rats were then exposed to an aerosol of 3% EA in saline for exactly 1 minute, then their respiratory profiles were recorded for a further 25-30 minutes. The duration of continuous dyspnoea was measured from the respiratory recordings.
Compounds were generally administered either intraperitoneally 1 hour prior to challenge or orally 11/2 hours prior to challenge. They were either dissolved in dimethylsulfoxide or suspended in 0.1% methocel and 0.5% Tween 80. The volume injected has 2 ml kg^-1 (intraperitoneally) or 10 ml kg^-1 (orally). Prior to oral treatment rats were starved overnight. Their activity was determined in terms of their ability to decrease the duration of symptoms of dyspnoea in comparison with a group of vehicle-treated controls. Usually, a compound was evaluated at a series of doses and an ED50 was determined. This was defined as the dose (mg/kg) which would inhibit the duration of symptoms by 50%.

[4] = mouse peritoneal macrophages, zymosan

Structure (SMILES) | IC50 [2] | IC50 [3, 4] | inhibition at 10 µg/mL ([1]; at 10 μg/ml) | further results
Cc1ccc(S(=O)(=O)Oc2ccc3c(c2Cl)Sc2ccccc2N3)cc1 [Compound 10] | 0.1 to 1 µg/mL (≈ 0.248 to 2.48 µM) |  |  | inhibition at 3 µg/mL [1]: 14%
CC(=O)Oc1ccc2c(c1Cl)Sc1ccccc1N2 [Compound 11] |  | 0.1 µg/mL | 100% | 
COc1ccc2c(c1Cl)Sc1ccccc1N2 [Compound 12] | 0.01 to 0.1 µg/mL (≈ 0.0379 to 0.379 µM) |  |  | inhibition at 1 µg/mL ([1]; at 1 μg/ml): 60%
COc1ccc2c(c1)Sc1cc(Cl)ccc1N2 [Compound 13] |  | 0.12 µg/mL | 22% | 
Clc1ccc2c(c1)Sc1cc(Cl)ccc1N2 [Compound 14] | 0.005 to 0.05 µg/mL (≈ 0.0186 to 0.186 µM) | 0.01 to 0.1 µg/mL | 1% | 
O=[N+]([O-])c1ccc2c(c1)Sc1cc([N+](=O)[O-])ccc1N2 [Compound 15] |  | 0.0016 to 0.008 µg/mL | 21% | 
COc1ccc2c(c1)Sc1c(cc(OC)c(O)c1Br)N2 [Compound 16] | 0.01 µg/mL (≈ 0.0282 µM) |  |  | 
CN(C)c1ccc2c(c1)Sc1cc(N(C)C)ccc1N2 [Compound 17] |  | 5 µg/mL |  | 
Oc1cccc2c1Nc1ccccc1S2 [Compound 18] | 0.05 to 0.5 µg/mL (≈ 0.232 to 2.32 µM) |  | 3% | 
CC(=O)Oc1ccc2c(c1)Sc1cc(F)ccc1N2 [Compound 19] | 0.005 µg/mL (≈ 0.0182 µM) |  |  | 
CC(C)C(=O)Oc1ccc2c(c1Cl)Sc1ccccc1N2 [Compound 20] | 0.005 to 0.05 µg/mL (≈ 0.0156 to 0.156 µM) |  | 65% | 
CC(=O)N1c2ccccc2Sc2ccccc21 [Compound 21] |  | 5 µg/mL |  | 
COc1ccc2c(c1Cl)Sc1ccccc1N2C(C)=O [Compound 22] | 1 µg/mL (≈ 3.27 µM) | 1 µg/mL | 91% | 
FC(F)(F)c1ccc2c(c1)Nc1ccccc1O2 [Compound 23] | 0.05 to 0.5 µg/mL (≈ 0.199 to 1.99 µM) |  |  | inhibition at 3 µg/mL [1]: 40%
c1ccc2c(c1)Nc1ccccc1O2 [Compound 24] | 5 µg/mL (≈ 27.3 µM) |  |  | IC50 ([3]; Mus musculus): 0.1 µg/mL; inhibition at 1 µg/mL [1]: 88%
CC(=O)Oc1ccc2c(c1)Sc1cccc(Cl)c1N2C [Compound 25] | 0.5 µg/mL (≈ 1.64 µM) |  |  | inhibition at 3 µg/mL [1]: 1 to 9%
COc1ccc2c(c1Cl)Sc1ccccc1N2C [Compound 26] | 5 µg/mL (≈ 18 µM) | 1 µg/mL | 3% | 
CC(C)C(=O)Oc1ccc2c(c1Cl)Sc1ccccc1N2C [Compound 27] | 0.005 to 0.05 µg/mL (≈ 0.015 to 0.15 µM) |  |  | inhibition at 3 µg/mL [1]: 6%
c1ccc2c(c1)Nc1ccccc1S2 [drawing 34] | 0.4 µg/mL (≈ 2.01 µM) |  |  | IC50 ([3]; Mus musculus): 0.06 µg/mL; inhibition at 10 µg/mL [1]: 100%
c1ccc2c(c1)Nc1ccccc1O2 [drawing 75] |  |  |  | inhibition in vivo at 1.5 mg/kg (asthmatic rats): 51%

From patent US4666907A, “Phenothiazine and derivatives and analogs and use as leukotriene biosynthesis inhibitors” (Merck Frosst Canada, Inc., priority 1986, dated 1987)
